Reference: patent US5550119A, “Phosphono substituted tetrazole derivatives as ECE inhibitors” (Ciba-Geigy Corporation, priority 1995, dated 1996)

Assays:
[1] = tested on: DOCA-salt hypertensive rats; assay: antihypertensive effect in DOCA-salt hypertensive rats; assay type: in vivo, rat; settings: 10 mg/Kg p.o., in PEG 400
Method: The antihypertensive effect can be determined in desoxycorticosterone acetate (DOCA)-salt hypertensive rats.
DOCA-salt hypertensive rats (280-380 g) are prepared by the standard method. Rats underwent a unilateral nephrectomy and one week later are implanted with silastic pellets containing 100 mg/kg of DOCA. The rats are maintained on 1% NaCl/0.2% KCl drinking water for three to five weeks until sustained hypertension is established. The antihypertensive activity is evaluated at this time.
Two days before an experiment, the rats are anesthetized with methoxyflurane and instrumented with catheters in the femoral artery to measure arterial blood pressure. Forty-eight hours later, baseline arterial pressure and heart rate are recorded during a 1 hour period. The test compound or vehicle is then administered and the same cardiovascular parameters are monitored for an additional 5 hours.

plasma ANF concentration = assay: effect on rat plasma ANF concentration; assay type: in vivo, Male Sprague-Dawley rats; settings: about 10 mg/kg p.o., in 10% ethanol/polyethylene glycol 400; ANF infused 450 ng/kg/min i.v.
Method: The effect of the compounds of the invention on rat plasma ANF concentration can be determined as follows:
Male Sprague-Dawley rats (275-390 g) are anesthetized with ketamine (150 mg/kg)/acepromazine (10%) and instrumented with catheters in the femoral artery and vein to obtain blood samples and infuse ANF, respectively. The rats are tethered with a swivel system and are allowed to recover for 24 hours before being studied in the conscious, unrestrained state.
In this assay, plasma ANF levels are determined in the presence and absence of NEP inhibition. On the day of study, all rats are infused continuously with ANF at 450 ng/kg/min. i.v. for the entire 5 hours of the experiment. Sixty minutes after beginning the infusion, blood samples for baseline ANF measurements are obtained (time 0) and the rats are then randomly divided into groups treated with the test compound or vehicle. Additional blood samples are taken 30, 60, 120, 180 and 240 minutes after administration of the test compound.
Plasma concentrations are determined by a specific radioimmunoassay. […] The supenatant is decanted and the pellets counted in a gamma counter. […] Plasma ANF levels are expressed as a percent of those measured in vehicle-treated animals which received ANF alone (450 ng/kg/min i.v.).

[2] = molecular target: T1, porcine endothelin converting enzyme (Sus scrofa, UniProt A0A8W4FBH0); assay: in vitro inhibition of porcine endothelin-converting enzyme (ECE); assay type: biochemical; settings: partially purified from porcine primary aortic endothelial cells
T1 construct: partially purified from porcine primary aortic endothelial cells by DE52 anion exchange column; endogenous in cells; host or cells: porcine primary aortic endothelial cells
T1 sequence (A0A8W4FBH0 1-751): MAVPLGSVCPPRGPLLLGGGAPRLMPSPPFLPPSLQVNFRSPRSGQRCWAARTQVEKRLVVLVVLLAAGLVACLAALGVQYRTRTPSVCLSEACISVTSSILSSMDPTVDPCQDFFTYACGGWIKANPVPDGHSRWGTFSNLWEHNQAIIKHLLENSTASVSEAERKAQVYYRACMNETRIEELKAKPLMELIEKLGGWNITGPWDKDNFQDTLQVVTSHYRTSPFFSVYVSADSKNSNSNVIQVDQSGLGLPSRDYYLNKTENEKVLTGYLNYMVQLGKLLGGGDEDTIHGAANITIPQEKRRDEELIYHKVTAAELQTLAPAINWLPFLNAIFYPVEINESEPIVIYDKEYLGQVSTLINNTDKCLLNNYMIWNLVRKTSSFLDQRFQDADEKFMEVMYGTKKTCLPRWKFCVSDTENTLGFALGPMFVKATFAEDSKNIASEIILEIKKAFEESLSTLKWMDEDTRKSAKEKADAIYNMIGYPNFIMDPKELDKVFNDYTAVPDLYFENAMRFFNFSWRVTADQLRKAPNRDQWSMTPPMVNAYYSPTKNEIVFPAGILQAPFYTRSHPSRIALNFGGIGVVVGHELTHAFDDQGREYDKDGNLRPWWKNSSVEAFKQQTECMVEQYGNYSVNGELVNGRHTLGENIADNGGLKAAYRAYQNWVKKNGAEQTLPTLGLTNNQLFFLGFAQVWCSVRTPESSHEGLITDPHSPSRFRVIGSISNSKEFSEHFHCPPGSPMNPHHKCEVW
Source text: Endothelin converting enzyme (ECE) is partially purified from porcine primary aortic endothelial cells by DE52 anion exchange column chromatrography and its activity is quantified by radioimmunoassay as described in Anal. Biochem. 213, 434-436 (1993). The ECE inhibition can be determined as described in Biochem. Mol. Biol. Int. 31, (5), 861-867 (1993), by radioimmunoassay to measure ET-1 formed from big ET-1.

[3] = tested on: big ET-1 induced pressor response; assay: inhibition of big ET-1 induced pressor response in conscious spontaneously hypertensive rats (SHR); assay type: in vivo; settings: continuous infusion of 5 mg/Kg/day; over 60 minutes; vs vehicle control
Method: ECE inhibition can also be determined in vivo by measuring the inhibition big ET-1 induced pressor response in conscious spontaneously hypertensive rats (SHR), e.g. as described in Biochem. Biophys. Res. Communic. 204, 407-412 (1994).
Male SHR (16-18 weeks of age) are administered either test compound or vehicle (1M NaHCO3) via an osmotic minipump implated subcutaneously. On day 5 femoral arterial and venous catheters are placed in anesthetized rats for the measurement of MAP (mean arterial pressure) and for test compound administration, respectively. After a 48 hour recovery period, MAP is recorded (day 7) through the arterial catheter connected to a pressure transducer. Blood pressure and heart rate are allowed to stabilize for 30 minutes before ganglion blockade is performed using chlorisondamine ([…] i.v.). Approximately 15 minutes later, a bolus dose of big ET-1 (0.25 nmol/kg i.v.) is administered to both vehicle- and test compound treated rats. The change in blood pressure in response to big ET-1 is then compared between the two groups of rats at 1, 5, 10, 15, 30 and 60 min after dosing using a two-way ANOVA.

[4] = tested on: spontaneous hypertensive rats; assay: mean arterial pressure of spontaneous hypertensive rats using telemetry; assay type: in vivo, rat; settings: continuous infusion of 5 mg/Kg/day for 13 days, no exogenous big ET-1

With `O=P(CN[C@@H](Cc1ccc(-c2ccccc2)cc1)c1nnn[nH]1)(Oc1ccccc1)Oc1ccccc1` the blood pressure [1] was “significant reduction in blood pressure” and the “plasma ANF levels” value (plasma ANF concentration) was “significant increases in plasma ANF levels”.
In the case of `O=P(O)(O)CN[C@@H](Cc1ccc(-c2ccccc2)cc1)c1nnn[nH]1` [(S)-[2-(Biphenyl-4-yl)-1-(1H-tetrazol-5-yl)-ethylamino]-methylphosphonic acid], the IC50 [2] is reported as ~1100 nM, the “reduction of big ET-1 induced pressor response” value [3] is reported as “significant difference in reduction of big ET-1 induced pressor response” and the mean arterial pressure [4] is reported as “sustained reduction in the mean arterial pressure”.
